According to patent publication US5916924A, “Remedies for liver diseases” (Meiji Milk Products Co., Ltd., priority 1997, dated 1999):
Counter-ions that a name gives are not always drawn. Like-named read-outs stand apart in the source and are kept apart here.

Key:
mice (ICR, female) = test: Acute Toxicity Test; assay type: in vivo; details: intraperitoneal
Method: The pH was adjusted to 7.0 by use of 5N NaOH. Solutions having lower concentrations were prepared by dilution with physiological saline. Each solution (10 μl) was intraperitoneally injected to mice (ICR, female, 6-weeks old, 29 g), and the survival ratio was obtained.

[1] = system: liver disorder induced by carbon tetrachloride; test: GOT and GPT tests in mice with liver disorder induced by carbon tetrachloride; assay type: in vivo, ddY mice
Method: Carbon tetrachloride (5 ml, Wako Pure Chemicals) was put in a glass vial, and Panasate 800 (45 ml, Nippon Yushi Chemicals Co, Ltd.) was added to prepare a 10% (v/v) solution.
Subsequently,the total amount was made to 50 ml. An aliquot of 2 ml was diluted in 38 ml of physiological saline.
One group consisted of 10 mice. For 24 hours prior to the administration of tetrachloride, each mouse was fasted by being fed water only. 10% carbon tetrachloride/Panasate solution was intraperitoneally administered to each mice at a dose of 1 ml/kg.
Blood was collected from the abdominal aorta by use of 1-ml disposable syringes (Terumo). The blood, dispensed into 1.5 ml Eppendorf tubes, was subjected to centrifugal separation at 5,000 rpm for 10 minutes to thereby obtain serum. The activity of transaminase (GOT, GPT) in the serum thus obtained was measured. The measurement was performed by use of a Cobas Mira System (Baxter).

[2] = system: rat hepatocyte system in primary culture
Method: In separation and identification of the low molecular weight factor showing hepatocyte proliferation promoting activity derived from epithelial mucosa of the bovine small intestine, the rat hepatocyte system in primary culture was used. To this culture system, a fraction of a crude extract of bovine small intestine epithelial mucosa in the course of purification was added in the presence of high molecular weight factor extract (1%) and insulin (10 μg/ml) or in the presence of EGF (20 ng/ml) and insulin (10 μg/ml), to thereby establish an assay system for measuring the uptake of ^3 H-TdR into DNA of rat hepatocyte nuclei.
Fractions each amounting 15 ml was added to the above-mentioned assay system and the uptake of ^3 H-TdR was measured.

[3] = intraperitoneal, 2.8 mg/kg, 2 times

Structure (SMILES) | Survival (mice (ICR, female); 0.5 g/kg (as EA), 1 day after admin.) | Survival (mice (ICR, female); 0.5 g/kg (as EA), 6 days after admin.) | Survival (mice (ICR, female); 0.5 g/kg (as EA), day of administration) | Survival (mice (ICR, female); 1.25 g/kg (as EA), 1 day after admin.) | Survival (mice (ICR, female); 1.25 g/kg (as EA), 6 days after admin.) | Survival (mice (ICR, female); 1.25 g/kg (as EA), day of administration) | time to death after administration (mice (ICR, female); 2.5 g/kg) [min] | Survival (mice (ICR, female); 2.5 g/kg (as EA), day of administration) | time to death after administration (mice (ICR, female); 5.0 g/kg) [min] | Survival (mice (ICR, female); 5.0 g/kg (as EA), day of administration) | Survival (mice (ICR, female); doses equal to or less than 1.25 g/kg, six days) | area of necrosis in histopathological profile of the liver ([1]; 2.8 mg/kg i.p. and 16 mg/kg p.o.) | serum GOT level [1, 3] | serum GPT level [1, 3] | serum GOT level ([1]; peroral, 16 mg/kg, once) | serum GPT level ([1]; peroral, 16 mg/kg, once) | 3H-TdR uptake activity ([2]; in the presence of EGF) | 3H-TdR uptake activity ([2]; in the presence of the high molecular weight factor extract)
NCCO [EA-HC1, monoethanolamine-HCl] | 4/4 | 4/4 | 4/4 | 3/3 | 3/3 | 3/3 | ≤ 30 | 0/4 | ≤ 30 | 0/4 | alive when six days had passed |  |  |  |  |  |  | 
NCCO [ethanolamine, monoethanolamine] |  |  |  |  |  |  |  |  |  |  |  | tendency that the area of necrosis was reduced | significantly decreased | significantly decreased | significantly decreased | significantly decreased | synergistic growth-stimulating effects | synergistic growth-stimulating effects
